Data taken from patent US20110275699A1, “Treatment For Obesity And Diabetes” (University of California, priority 2010, published 2011).

Assays:
DNA-PK [1] = test: DNA-PK phosphorylation in treated 293 cells (western blotting); assay type: cell-based; conditions: 2 hrs
Method: (§1) C57BL/6J male mice (Jackson laboratory) were used at 7 wks of age unless specified. For fasting/feeding experiments, mice were fasted for 40 hrs and then fed a high carbohydrate, fat-free diet for indicated time periods. HepG2 cells were grown in DMEM supplemented with 10% fetal bovine serum and 100 units/ml penicillin/streptomycin. M059J and M059K were from ATCC and grown in the same medium containing 4 mg/ml glutamine. HepG2 cells were maintained in serum free media overnight prior to insulin treatment. For insulin treatment, HepG2 cells were treated with 100 nM insulin or DMSO for 30 min. 293FT cells in DMEM supplemented with 10% fetal bovine serum and 100 units/ml penicillin/streptomycin/neomycin or 293F cells in 293 Freestyle medium were transfected with expression constructs or siRNA (Santa Cruz) using lipofectamine 2000 (Invitrogen) or 293 Fectin (Invitrogen), respectively. 293 cells were treated with either control DMSO or OA at 1 uM and Taut at indicated concentrations for 2 hrs. […]
(§2) Therefore, Applicants tested the S262 phosphorylation status of USF-1 upon treatment with okadaic acid (OA), which is known to prevent dephosphorylation of DNA-PK (Douglas et al., 2001). […] Similarly, PP1 was not detected in nuclear extracts from control HepG2 cells but was increased upon insulin treatment (FIG. 3H, right panel). […]

USF-1 [2] = test: S262 phosphorylation of USF-1 in 293 cells (IP and western blotting); assay type: cell-based; conditions: 2 hrs
Method: as §1, with “hrs. Expression vectors for DNA-PK and mutants, HAT, HDAC9, PP1, Kus and −0.7 p53-Luc were from laboratories of Drs. Meek, Kouzarides, Zelent, Lamond, Shay and Oren respectively. siRNA for knockdown of DNA-PK is commercially available at Santa Cruz Biotechnology Inc.” for “hrs.”
Next S262 phosphorylation of USF-1 by DNA-PK in cultured cells was tested. […] Applicants detected higher S262 phosphorylation of USF-1 immunoprecipitated from cells overexpressing WT DNA-PK (FIG. 3B, left panel, lane 2), but not from cells expressing DNA-PK with T3950D mutation (FIG. 3B, lane 3) or control cells (FIG. 3B, lane 1). Furthermore, Applicants detected even higher S262 phosphorylation of USF-1 from cells expressing DNAPK with T3950A mutation compared to WT DNA-PK-expressing cells (FIG. 3B, middle panel, lane 3). […] WT USF-1, but not USF-1 containing S262A mutation, was detected to have higher phosphorylation upon cotransfection with DNA-PK (FIG. 3B, right panel, lanes 2 and 3). […]

USF-1 [3] = test: USF-1 interaction (IP) and recruitment of proteins to the FAS promoter (ChIP) in 293 cells; assay type: cell-based; conditions: Taut at indicated concentrations for 2 hrs
Method: as §1, with “hrs. Expression vectors for DNA-PK and mutants, HAT, HDAC9, PP1, Kus and −0.7 p53-Luc were from laboratories of Drs.” for “hrs.”
Livers from fasted or fed mice were fixed with DSG at 2 mM for 45 min at RT before formaldehyde cross-linking Soluble chromatin was quantified by absorbance at 260 nm, and equivalent amounts of input DNA were immunoprecipitated. […]

PP1 = PP1 in nuclear extracts of HepG2 cells; assay type: cell-based; conditions: insulin treatment vs control
Method: as §1, §2

USF-1 [4] = test: USF-1 S262 phosphorylation/K237 acetylation in HepG2 cells with or without insulin; assay type: cell-based; conditions: HepG2, control siRNA-transfected cells, insulin 100 nM 30 min
Method: as §1, with “hrs. Expression vectors for DNA-PK and mutants, HAT, HDAC9, PP1, Kus and −0.7 p53-Luc were from laboratories of Drs. Meek, Kouzarides, Zelent, Lamond, Shay and Oren respectively. siRNA for knockdown of DNA-PK is commercially available at Santa Cruz Biotechnology Inc.” for “hrs.”

USF-1 [5] = test: USF-1 modifications in M059K cells containing WT DNA-PK; assay type: cell-based, human; conditions: insulin 100 nM 30 min
Method: as §1, with “hrs. Expression vectors for DNA-PK and mutants, HAT, HDAC9, PP1, Kus and −0.7 p53-Luc were from laboratories of Drs. Meek, Kouzarides, Zelent, Lamond, Shay and Oren respectively. siRNA for knockdown of DNA-PK is commercially available at Santa Cruz Biotechnology Inc.” for “hrs.”

DNA-PK [6] = test: DNA-PK phosphorylation in HepG2 cells with or without insulin; assay type: cell-based; conditions: insulin-treated HepG2 cells vs noninsulin-treated cells
Method: as §1, with “hrs. Expression vectors for DNA-PK and mutants, HAT, HDAC9, PP1, Kus and −0.7 p53-Luc were from laboratories of Drs.” for “hrs.”
DNA-PK activity is known to be regulated by phosphorylation/dephosphorylation, independent of its activation by DNA. […] DNA-PK phosphorylation was detected using phosphoserine/threonine antibodies that detect autophosphorylation at the S/TQ motifs of DNA-PK.

USF-1 [7] = test: USF-1 modifications in M059J cells lacking DNA-PKcs; assay type: cell-based, human; conditions: insulin 100 nM 30 min
Method: as §1, with “hrs. Expression vectors for DNA-PK and mutants, HAT, HDAC9, PP1, Kus and −0.7 p53-Luc were from laboratories of Drs. Meek, Kouzarides, Zelent, Lamond, Shay and Oren respectively. siRNA for knockdown of DNA-PK is commercially available at Santa Cruz Biotechnology Inc.” for “hrs.”

USF-1 [8] = test: K237 acetylation of USF-1 in cells (IP and western blotting); assay type: cell-based; conditions: OA-treated cells vs control cells
Method: as §1, with “respectively.” for “respectively. 293 cells were treated with either control DMSO or OA at 1 uM and Taut at indicated concentrations for 2 hrs.”
Since USF-1 is both phosphorylated and acetylated at nearby sites and these posttranslational modifications are critical for USF-1 function in FAS promoter activation, we tested whether an increase in S262 phosphorylation of USF-1 could affect K237 acetylation. […] Conversely, we detected a significant level of K237 acetylation of USF-1 in control cells, which was reduced in OA-treated cells (FIG. 5B, left panel, lane 2). […]

Which “phosphorylated DNA-PK” value (DNA-PK [1]; Taut 1 uM, vs control cells) does the source give for `CO[C@H]([C@H](O)CC(=O)[C@@H](C)[C@@H](O)CC[C@@H](C)[C@@H]1O[C@]2(CC[C@@H](C)[C@H](CC[C@H](C)C(C)=O)O2)CC[C@@H]1C)[C@H](OC(=O)C[C@@H](O)C1=C(C)C(=O)OC1=O)C(C)C` [Taut, tautomycin] here?
Its value is “easily detected”.

What about the “S262 phosphorylation of USF-1” value (USF-1 [2]; Taut 10 nM) of the same compound?
Its value is “decreased”.

And the “S262 phosphorylation of USF-1” value (USF-1 [2]; Taut 1 uM)?
The value was “hardly detectable”.

What about the “USF-1 interaction and recruitment of various proteins” value (USF-1 [3]) of the same compound?
Its value is “abolished”.

How did the “PP1 in nuclear extracts” value (PP1) turn out when insulin was run?
The value was “increased”.

And the “K237 acetylation of USF-1” value (USF-1 [4])?
The value was “markedly increased”.

And the “S262 phosphorylation of USF-1” value (USF-1 [4])?
The value was “markedly increased”.

And the “K237 acetylation of USF-1” value (USF-1 [5])?
Its value is “increased”.

And the “S262 phosphorylation of USF-1” value (USF-1 [5])?
Its value is “increased”.

And the DNA-PK phosphorylation (DNA-PK [6])?
Its DNA-PK phosphorylation is “not detectable”.

And the “USF modifications (S262 phosphorylation, K237 acetylation)” value (USF-1 [7])?
The value was “did not result in any significant increase”.

How did the “phosphorylation of DNA-PK” value (DNA-PK [1]; OA 1 uM, vs control DMSO) turn out when `C=C1[C@@H](O)[C@@H]2O[C@]3(CC[C@H](/C=C/[C@@H](C)[C@@H]4CC(C)=C[C@@]5(O[C@H](C[C@@](C)(O)C(=O)O)CC[C@H]5O)O4)O3)CC[C@H]2O[C@@H]1[C@@H](O)C[C@H](C)[C@H]1O[C@@]2(CCCCO2)CC[C@H]1C` [OA, okadaic acid] was run?
Its value is “greatly increased”.

And the “S262 phosphorylation of USF-1” value (USF-1 [2]; OA 1 uM, vs control DMSO)?
Its value is “hardly detectable”.

And the “K237 acetylation of USF-1” value (USF-1 [8])?
Its value is “reduced”.
